Source: the CheMixHub viscosity set
Values joined by “and” are separate entries in the source; they are usually repeats but may differ in a detail not shown here. Equal entries are not always repeated. ± gives the uncertainty stated by the source.

Test: xn = mol fraction of the nth substance listed

Cc1ccc[n+](CCCO)c1.[Cl-] + O
viscosity [mPa·s], 100 kPa
Conditions | x1 = 0.001832 | x1 = 0.002695 | x1 = 0.003588 | x1 = 0.005369 | x1 = 0.007151 | x1 = 0.008924
293.15 K | 1.065 ± 0.022 | 1.09 ± 0.023 | 1.114 ± 0.023 | 1.16 ± 0.024 | 1.204 ± 0.025 | 1.246 ± 0.026
298.15 K | 0.943 ± 0.02 | 0.965 ± 0.02 | 0.986 ± 0.021 | 1.025 ± 0.021 | 1.063 ± 0.022 | 1.1 ± 0.023
303.15 K | 0.841 ± 0.018 | 0.86 ± 0.02 | 0.877 ± 0.018 | 0.912 ± 0.019 | 0.945 ± 0.02 | 0.976 ± 0.02
308.15 K | 0.757 ± 0.016 | 0.773 ± 0.016 | 0.789 ± 0.016 | 0.819 ± 0.017 | 0.848 ± 0.018 | 0.876 ± 0.018
313.15 K | 0.682 ± 0.014 | 0.696 ± 0.015 | 0.709 ± 0.015 | 0.735 ± 0.015 | 0.76 ± 0.02 | 0.784 ± 0.016

O=C[C@H](O)[C@@H](O)[C@H](O)CO + O
viscosity, 101 kPa
Conditions | x1 = 0.000546 | x1 = 0.0009 | x1 = 0.00124 | x1 = 0.0031 | x1 = 0.006 | x1 = 0.0063 | x1 = 0.013
293.15 K | – | – | – | 1.053 ± 0.013 mPa·s | 1.118 ± 0.024 mPa·s and 1.118 ± 0.014 mPa·s (2×) | 1.118 ± 0.014 mPa·s | 1.229 ± 0.026 mPa·s and 1.229 ± 0.015 mPa·s and 1.229 ± 0.016 mPa·s
298.15 K | 0.9164 ± 0.013 mPa·s | 0.9244 ± 0.013 mPa·s | 0.9306 ± 0.013 mPa·s | – | 0.9937 ± 0.021 mPa·s and 0.9937 ± 0.012 mPa·s and 0.9937 ± 0.013 mPa·s | 0.9937 ± 0.013 mPa·s | –
303.15 K | – | – | – | 0.8381 ± 0.01 mPa·s | 0.8889 ± 0.019 mPa·s and 0.8889 ± 0.011 mPa·s (2×) | 0.8889 ± 0.011 mPa·s | 0.986 ± 0.021 mPa·s and 0.986 ± 0.012 mPa·s and 0.986 ± 0.013 mPa·s
308.15 K | – | – | – | 0.7529 ± 0.0094 mPa·s | 0.7916 ± 0.017 mPa·s and 0.7916 ± 0.0098 mPa·s and 0.7916 ± 0.01 mPa·s | 0.7916 ± 0.0099 mPa·s | 0.8843 ± 0.019 mPa·s and 0.8843 ± 0.011 mPa·s (2×)
313.15 K | – | – | – | 0.683 ± 0.0085 mPa·s | 0.7163 ± 0.015 mPa·s and 0.7163 ± 0.0088 mPa·s and 0.7163 ± 0.0091 mPa·s | 0.7163 ± 0.009 mPa·s | 0.798 ± 0.017 mPa·s and 0.798 ± 0.0099 mPa·s and 0.798 ± 0.01 mPa·s
318.15 K | – | – | – | – | 0.6565 ± 0.014 mPa·s and 0.6565 ± 0.0081 mPa·s and 0.6565 ± 0.0084 mPa·s | 0.6565 ± 0.0082 mPa·s | 0.7216 ± 0.015 mPa·s and 0.7216 ± 0.0089 mPa·s and 0.7216 ± 0.0092 mPa·s

[Cl-].[K+] + O
Conditions | viscosity
293.15 K, 101 kPa, x1 = 0.005905 | 0.9971 ± 0.0063 mPa·s and 0.9972 ± 0.0063 mPa·s
293.15 K, 101 kPa, x1 = 0.009253 | 0.9943 ± 0.0063 mPa·s
293.15 K, 101 kPa, x1 = 0.01811 | 0.9892 ± 0.0063 mPa·s and 0.989 ± 0.0063 mPa·s
293.15 K, 101 kPa, x1 = 0.02711 | 0.9882 ± 0.0064 mPa·s and 0.9881 ± 0.0064 mPa·s
293.15 K, 101 kPa, x1 = 0.03656 | 0.9913 ± 0.0065 mPa·s
293.15 K, 101 kPa, x1 = 0.0468 | 0.9995 ± 0.0067 mPa·s and 0.9994 ± 0.0067 mPa·s
293.15 K, 101 kPa, x1 = 0.07583 | 1.047 ± 0.0073 mPa·s
297.65 K, 100 kPa, x1 = 0.02628 | 0.905 ± 0.025 mPa·s and 0.904 ± 0.025 mPa·s
298.15 K, 100 kPa, x1 = 0.05933 | 0.932 ± 0.025 mPa·s and 0.933 ± 0.025 mPa·s
298.15 K, 101 kPa, x1 = 0.005905 | 0.8895 ± 0.0057 mPa·s
298.15 K, 101 kPa, x1 = 0.009253 | 0.8885 ± 0.0057 mPa·s and 0.8886 ± 0.0057 mPa·s
298.15 K, 101 kPa, x1 = 0.01811 | 0.8883 ± 0.0058 mPa·s and 0.8882 ± 0.0058 mPa·s
298.15 K, 101 kPa, x1 = 0.02711 | 0.8911 ± 0.0059 mPa·s and 0.891 ± 0.0059 mPa·s
298.15 K, 101 kPa, x1 = 0.0468 | 0.908 ± 0.0061 mPa·s and 0.9079 ± 0.0061 mPa·s
298.15 K, 101 kPa, x1 = 0.05806 | 0.9238 ± 0.0063 mPa·s
298.15 K, 101 kPa, x1 = 0.06612 | 0.9378 ± 0.0065 mPa·s and 0.9377 ± 0.0065 mPa·s
298.15 K, 101 kPa, x1 = 0.07583 | 0.9577 ± 0.0067 mPa·s and 0.9576 ± 0.0067 mPa·s
298.15 K, 101.3 kPa, x1 = 0.00072 | 0.8908 ± 0.0085 mPa·s
298.15 K, 101.3 kPa, x1 = 0.00162 | 0.8906 ± 0.0085 mPa·s
298.15 K, 101.3 kPa, x1 = 0.002874 | 0.8911 ± 0.0085 mPa·s
298.15 K, 101.3 kPa, x1 = 0.004484 | 0.8895 ± 0.0085 mPa·s
298.15 K, 101.3 kPa, x1 = 0.007154 | 0.8891 ± 0.0085 mPa·s
298.15 K, 101.3 kPa, x1 = 0.01245 | 0.8885 ± 0.0085 mPa·s
298.15 K, 101.3 kPa, x1 = 0.0177 | 0.8882 ± 0.0085 mPa·s
299.15 K, 100 kPa, x1 = 0.07333 | 0.95 ± 0.026 mPa·s and 0.949 ± 0.026 mPa·s
299.65 K, 100 kPa, x1 = 0.04316 | 0.888 ± 0.024 mPa·s
300.15 K, 100 kPa, x1 = 0.008975 | 0.86 ± 0.023 mPa·s and 0.858 ± 0.023 mPa·s
303.15 K, 101 kPa, x1 = 0.005905 | 0.7997 ± 0.0052 mPa·s
303.15 K, 101 kPa, x1 = 0.009253 | 0.8005 ± 0.0052 mPa·s and 0.8003 ± 0.0052 mPa·s
303.15 K, 101 kPa, x1 = 0.01811 | 0.8034 ± 0.0053 mPa·s and 0.8032 ± 0.0053 mPa·s
303.15 K, 101 kPa, x1 = 0.03656 | 0.8174 ± 0.0055 mPa·s
303.15 K, 101 kPa, x1 = 0.0468 | 0.8296 ± 0.0057 mPa·s and 0.8294 ± 0.0057 mPa·s
303.15 K, 101 kPa, x1 = 0.05806 | 0.8467 ± 0.0059 mPa·s and 0.8466 ± 0.0059 mPa·s
303.15 K, 101 kPa, x1 = 0.06612 | 0.8611 ± 0.006 mPa·s and 0.8612 ± 0.006 mPa·s
303.15 K, 101 kPa, x1 = 0.07583 | 0.8802 ± 0.0062 mPa·s and 0.8799 ± 0.0062 mPa·s
307.15 K, 100 kPa, x1 = 0.05933 | 0.798 ± 0.022 mPa·s and 0.799 ± 0.022 mPa·s
308.15 K, 100 kPa, x1 = 0.05933 | 0.793 ± 0.021 mPa·s and 0.794 ± 0.021 mPa·s
308.15 K, 101.3 kPa, x1 = 0.00072 | 0.7204 ± 0.007 mPa·s
308.15 K, 101.3 kPa, x1 = 0.00162 | 0.721 ± 0.007 mPa·s
308.15 K, 101.3 kPa, x1 = 0.007154 | 0.7241 ± 0.007 mPa·s
308.15 K, 101.3 kPa, x1 = 0.01245 | 0.7273 ± 0.0071 mPa·s
308.15 K, 101.3 kPa, x1 = 0.0177 | 0.7305 ± 0.0071 mPa·s
308.65 K, 100 kPa, x1 = 0.02628 | 0.738 ± 0.02 mPa·s and 0.737 ± 0.02 mPa·s
308.65 K, 100 kPa, x1 = 0.04316 | 0.761 ± 0.021 mPa·s and 0.759 ± 0.021 mPa·s
309.15 K, 100 kPa, x1 = 0.008975 | 0.717 ± 0.02 mPa·s
309.15 K, 100 kPa, x1 = 0.07333 | 0.805 ± 0.022 mPa·s
313.15 K, 101 kPa, x1 = 0.005905 | 0.6585 ± 0.0044 mPa·s
313.15 K, 101 kPa, x1 = 0.009253 | 0.661 ± 0.0044 mPa·s
313.15 K, 101 kPa, x1 = 0.01811 | 0.6685 ± 0.0045 mPa·s and 0.6683 ± 0.0045 mPa·s
313.15 K, 101 kPa, x1 = 0.02711 | 0.6774 ± 0.0046 mPa·s
313.15 K, 101 kPa, x1 = 0.03656 | 0.6885 ± 0.0048 mPa·s
313.15 K, 101 kPa, x1 = 0.0468 | 0.7028 ± 0.0049 mPa·s
313.15 K, 101 kPa, x1 = 0.05806 | 0.7211 ± 0.0051 mPa·s
313.15 K, 101 kPa, x1 = 0.06612 | 0.7359 ± 0.0053 mPa·s
313.15 K, 101 kPa, x1 = 0.07583 | 0.7551 ± 0.0055 mPa·s
316.15 K, 100 kPa, x1 = 0.008975 | 0.629 ± 0.017 mPa·s and 0.63 ± 0.017 mPa·s
317.65 K, 100 kPa, x1 = 0.02628 | 0.631 ± 0.017 mPa·s
317.65 K, 100 kPa, x1 = 0.05933 | 0.686 ± 0.019 mPa·s
318.15 K, 100 kPa, x1 = 0.07333 | 0.705 ± 0.019 mPa·s and 0.706 ± 0.019 mPa·s
318.15 K, 101.3 kPa, x1 = 0.00072 | 0.5972 ± 0.006 mPa·s
318.15 K, 101.3 kPa, x1 = 0.00162 | 0.5983 ± 0.006 mPa·s
318.15 K, 101.3 kPa, x1 = 0.002874 | 0.6 ± 0.006 mPa·s
318.15 K, 101.3 kPa, x1 = 0.004484 | 0.601 ± 0.006 mPa·s
318.15 K, 101.3 kPa, x1 = 0.007154 | 0.6037 ± 0.006 mPa·s
319.15 K, 100 kPa, x1 = 0.04316 | 0.643 ± 0.017 mPa·s and 0.64 ± 0.017 mPa·s
323.15 K, 101 kPa, x1 = 0.005905 | 0.554 ± 0.0038 mPa·s
323.15 K, 101 kPa, x1 = 0.01811 | 0.5673 ± 0.004 mPa·s
323.15 K, 101 kPa, x1 = 0.02711 | 0.5782 ± 0.0041 mPa·s
323.15 K, 101 kPa, x1 = 0.0468 | 0.6058 ± 0.0043 mPa·s
323.15 K, 101 kPa, x1 = 0.05806 | 0.6242 ± 0.0045 mPa·s
323.15 K, 101 kPa, x1 = 0.06612 | 0.6389 ± 0.0047 mPa·s
323.15 K, 101 kPa, x1 = 0.07583 | 0.6575 ± 0.0048 mPa·s
